For data set [1], the system named is Listeria monocytogenes ATCC7644. As to the kind of experiment: Broth microdilution assay (MIC). The format is cell-based. The protocol:
(§1) The antibacterial activity of all compounds was evaluated by determining the minimum inhibitory concentration (MIC), which is defined as the lowest concentration of the compound at which no visible bacterial growth is detected. The compounds were tested against representatives of Gram-positive and Gram-negative strains, including the ESKAPE bacterium Staphylococcus aureus ATCC25923 and the clinical isolate of methicillin-resistant S. aureus (MRSA), which are known for their pathogenicity.
(§2) All microbial strains were maintained at ™80 °C for long-term storage and subcultured on Mueller-Hinton (MH) agar (Biolife, Italy) prior to broth microdilution experiments. The MH plates were stored at +4 °C for no longer than one month.
(§3) Antibacterial activity was evaluated using the Broth Microdilution Assay according to the Clinical and Laboratory Standard Institute’s Methods for Dilution Antimicrobial Susceptibility Test for Bacteria That Grow Aerobically; Approved Standard-Tenth Edition.
(§4) The stock solution of QAS (10 mg/mL) was prepared in 4% DMSO. Then, 100 µL of the tested QAS was added to the first well of the microtiter plate. Twofold serial dilutions in Muller-Hinton broth were performed over the entire plate at a concentration range of 5 mg/mL to 5 µg/mL. […] The minimum inhibitory concentration (MIC) was determined as the lowest concentration at which no visually detectable bacterial growth occurred in the wells.

The subject of data set [2] is Bacillus cereus ATCC14579. In words: Broth microdilution assay (MIC). It is filed as cell-based. Here is the method: as §1, §2, §3, §4
(Dilution methods test growth across graded concentrations, often in twofold steps.)

Data set [3] relates to Enterococcus faecalis ATCC29212. In words: Broth microdilution assay (MIC). It is filed as cell-based. Here is the method:
as §1, §2, §3, §4

In data set [4] the test system is Staphylococcus aureus ATCC25923. In words: Broth microdilution assay (MIC). It is filed as cell-based. As to conditions: for MIC: Staphylococcus aureus. Here is the method:
as §1, §2, §3, §4

For data set [5], the system named is Escherichia coli ATCC25922. As to the kind of experiment: Broth microdilution assay (MIC). The note with it: ATCC25922, 18 h. The format is cell-based. The protocol:
as §1, §2, §3, §4

Data set [6] has as its system Pseudomonas aeruginosa ATCC27853. In words: Broth microdilution assay (MIC). It is filed as cell-based. Here is the method:
as §1, §2, §3, §4

A further data set deals with HaCaT cells. As to the kind of experiment: Cytotoxicity (MTS assay). As to conditions: 48 h. Here is the method:
(§5) Keratinocytes are the primary cell type found in the outermost layer of the skin. Therefore, HaCaT cells were used as a model for human skin, and RPE1 are retinal pigment epithelial cells, thus a model for epithelial cell type.
(§6) Cells were grown in DMEM media in a humidified environment with 5% CO2 and 37 °C. To determine cytotoxicity, a twofold serial dilution of a tested compound starting at 5 mg/mL was prepared in a 96-well plate. Five thousand cells were pipetted into each well, and the cells were grown for an additional 48 h. Then, the reagent MTS (20 μL) was added to the cells according to the manufacturer’s instructions (CellTiter 96® Aqueous One Solution Cell Proliferation Assay, Promega). After 3 h of incubation, the absorbance was measured at 490 nm. IC50 values were determined by plotting compound concentration against absorbance using GraFit6 software.
For orientation: Tetrazolium dyes change colour on reduction, which living cells bring about.

Another data set concerns RPE1 cells. As to the kind of experiment: Cytotoxicity (MTS assay). As to conditions: 48 h. The protocol:
as §5, §6

Data set [7] has as its system methicillin-resistant Staphylococcus aureus clinical strain MRSA. As to the kind of experiment: Broth microdilution assay (MIC). It is filed as cell-based. The protocol: as §1
(§7) The collection included five Gram-positive strains, including Staphylococcus aureus (ATCC 25923 and a methicillin-resistant Staphylococcus aureus clinical strain MRSA), Bacillus cereus ATCC 14579, Enterococcus faecalis ATCC 29212, and Listeria monocytogenes ATCC 7644; and three Gram-negative strains: Escherichia coli ATCC 25922, Pseudomonas aeruginosa ATCC 27853 and the food isolate Salmonella enterica. All microbial strains were maintained at ™80 °C for long-term storage and subcultured on Mueller-Hinton (MH) agar (Biolife, Italy) prior to broth microdilution experiments. The MH plates were stored at +4 °C for no longer than one month.
as §3
(§8) The stock solution of QAS (10 mg/mL) was prepared in 4% DMSO. Then, 100 µL of the tested QAS was added to the first well of the microtiter plate. Twofold serial dilutions in Muller-Hinton broth were performed over the entire plate at a concentration range of 5 mg/mL to 5 µg/mL. To each well, 50 µL of mid-exponentially grown inoculum containing 10^5 CFU/mL in Mueller-Hinton broth was added and incubated at 37 °C for 18 hours. The minimum inhibitory concentration (MIC) was determined as the lowest concentration at which no visually detectable bacterial growth occurred in the wells.

The test system of data set [8] is Salmonella enterica food isolate. As to the kind of experiment: Broth microdilution assay (MIC). The format is cell-based. The note with it: 18 h, S. enterica food isolate. The protocol:
as §1, §7, §3, §8

For data set [9], the system named is Tobacco mosaic virus (TMV). As to the kind of experiment: Antiphytoviral activity assay (local lesions on host plant leaves). The format is in vivo, Tobacco mosaic virus on Datura stramonium. The note with it: Datura stramonium leaves. The protocol: Leaves of Nicotiana tabacum L. cv. Samsun plants systemically infected with Tobacco mosaic virus (TMV) were ground in 0.06 mol/L phosphate buffer, pH 7.0 (1:1, w/v) to prepare virus inocula. […] Leaves of the local host Datura stramonium L. were dusted with silicon carbide (Sigma-Aldrich, St. Louis, MO, USA) before virus inoculation, and the inoculum was diluted with inoculation buffer to obtain 5–20 lesions per inoculated leaf. Experiments were performed when the experimental plants reached the 4–6 leaf stage.
The tested QAS (10 mg/mL) were dissolved in 4% DMSO and added to the virus inocula at a final concentration of 100 µg/mL. DMSO was added to the control virus inocula at the same concentration. The control and treated plants were then rubbed with the prepared inocula and the antiviral activity of the tested compounds was evaluated by the percentage inhibition of the number of local lesions on the leaves of the treated and control plants as described in [40]. The obtained data were analyzed in Excel (Microsoft Office) and significant differences were determined by t-test.

Where [10] appears, read: compound 100 µg/mL inoculated simultaneously with TMV.

The structures appear in SMILES notation. “And” between values parts separate entries of the source, which are not always exact repeats. Identical values can stand only once. Like-named read-outs stand apart in the source and are kept apart here.

For orientation: MIC means the least concentration at which growth counts as inhibited. Broadly, the melting point is the temperature of the solid-liquid transition.

Take `CCCCCCCCCCCCCC[n+]1ccc(C=NO)cc1` [Py-C14]: the minimal inhibitory concentration (MIC) was 310 µg/mL and 780 µM in data set [1] (ATCC7644, 18 h); 1250 µg/mL in [2] (ATCC14579, 18 h); 310 µg/mL and 780 µM in [3] (ATCC29212, 18 h); 80 µg/mL in [4] (ATCC25923, 18 h); 630 µg/mL and 1580 µM in [5]; 2500 µg/mL and 6260 µM in [6] (ATCC27853, 18 h). Moreover, the MIC is 160 µg/mL in data set [7] (MRSA, 18 h); 2500 µg/mL and 6260 µM in [8]. Moreover, the Cytotoxicity in words result in the data set with HaCaT cells and with RPE1 cells was “moderately toxic” throughout. Besides, the “fold higher LLN than the control BAB” value in data set [9] (100 µg/mL) is reported as 5 fold. Further, the “Number of local lesions (LLN ± SD)” value in data set [9] (setting [10]) is 1.0±0.4.

`ON=Cc1cc[n+](CCCCCCCCCCCCBr)cc1.[Br-]` [Py-C12Br, N-(12-bromododecyl)-4-hydroxyiminomethylpyridinium bromide] returned a melting point of 109 to 110 °C. Moreover, the minimal inhibitory concentration (MIC) in data set [1] (ATCC7644, 18 h) is 1250 µg/mL and 2780 µM. In data set [2] (ATCC14579, 18 h), the minimum inhibitory concentration (MIC) was determined as 630 µg/mL. For the same compound, in [3] (ATCC29212, 18 h), the MIC is 1250 µg/mL and 2780 µM. This compound returned a minimal inhibitory concentration (MIC) in [4] (ATCC25923, 18 h) of 160 µg/mL. In addition, the MIC in data set [5] (E. coli ATCC25922) was 630 µg/mL and 1400 µM. For the same compound, the MIC in data set [6] (ATCC27853, 18 h) was 2500 µg/mL and 5550 µM. In [7] (MRSA, 18 h), this compound had a minimum inhibitory concentration (MIC) of 310 µg/mL. Further, in [8], the MIC is 2500 µg/mL and 5550 µM. In addition, the “Number of local lesions (LLN ± SD)” value in data set [9] (setting [10]) turned out to be 6.3±1.6. The “Percentage of inhibition of local lesions” value in data set [9] (compound 100 µg/mL inoculated simultaneously with TMV, vs control plants) was determined as 57.7%.

Take `CCCCCCCCCCCCCCCC[n+]1ccc(C=NO)cc1` [Py-C16]: the minimum inhibitory concentration (MIC) was 1250 µg/mL and 2920 µM in data set [1] (ATCC7644, 18 h); 160 µg/mL in data set [2] (ATCC14579, 18 h); 2500 µg/mL and 5850 µM in [3] (ATCC29212, 18 h); 40 µg/mL in [4] (ATCC25923, 18 h); 160 µg/mL and 370 µM in data set [5]; 2500 µg/mL and 5850 µM in data set [6] (ATCC27853, 18 h). Moreover, the minimal inhibitory concentration (MIC) was 160 µg/mL in data set [7] (MRSA); 160 µg/mL in data set [7] (MRSA, 18 h); 5000 µg/mL and 11700 µM in [8]. Also, the “fold higher MIC than CPC” value in data set [4] (S. aureus ATCC25923) is 28 fold. The “fold higher MIC than cefotaxime” value in data set [4] (S. aureus ATCC25923) was 10 fold. In addition, the Cytotoxicity in words entry in the data set on HaCaT cells and with RPE1 cells was “moderately toxic” throughout.

Compound `ON=Cc1cc[n+](Cc2ccc(F)cc2)cc1.[Br-]` [Py-BnF, N-p-fluorobenzyl-4-hydroxyiminomethylpyridinium bromide] had a melting point of 181 to 183 °C. In addition, in data set [1] (ATCC7644, 18 h), the minimum inhibitory concentration (MIC) is > 5000 µg/mL and > 16100 µM. In data set [2] (ATCC14579, 18 h), this compound had an MIC greater than 5000 µg/mL. Also, the MIC in data set [3] (ATCC29212, 18 h) is > 5000 µg/mL and > 16100 µM. In data set [4] (ATCC25923, 18 h), this compound yielded an MIC of 5000 µg/mL. In data set [5] (E. coli ATCC25922), this compound returned a minimal inhibitory concentration (MIC) of 630 µg/mL. Further, in [6] (ATCC27853, 18 h), the MIC was > 5000 µg/mL and > 16100 µM. In data set [7] (MRSA, 18 h), this compound returned a minimum inhibitory concentration (MIC) greater than 5000 µg/mL. The minimum inhibitory concentration (MIC) in [8] is > 5000 µg/mL and > 16100 µM.

As for `ON=Cc1ccncc1` [Py-4-ox, pyridine-4-aldoxime, reference compound], the MIC in data set [1] (18 h, L. monocytogenes ATCC7644, read-out: MIC) is > 5000 µg/mL and > 40900 µM; in data set [2] (18 h, B. cereus ATCC14579, read-out: MIC), greater than 5000 µg/mL; in data set [3] (18 h, E. faecalis ATCC29212, read-out: MIC), 5000 µg/mL and 40900 µM; in data set [4] (S. aureus ATCC25923, 18 h, 37 °C, read-out: MIC), greater than 5000 µg/mL; in [5] (E. coli ATCC25922, read-out: MIC), > 5000 µg/mL and > 40900 µM; in data set [6] (18 h, P. aeruginosa ATCC27853, read-out: MIC), > 5000 µg/mL and > 40900 µM. Besides, the MIC is greater than 5000 µg/mL in data set [7] (18 h, S. aureus clinical/MRSA, read-out: MIC); 5000 µg/mL and 40900 µM in data set [8]. Besides, the Cytotoxicity in words entry in the data set on HaCaT cells and in the data set on RPE1 cells was “moderately toxic” each time.

Values taken from publication PMC9315884, “New Membrane Active Antibacterial and Antiviral Amphiphiles Derived from Heterocyclic Backbone of Pyridinium-4-Aldoxime” (Pharmaceuticals, 2022).
